In US11844785B2, “3-(phenyl)-N-(4-phenoxybenzyl)-1,2,4-oxadiazole-5-carboxamide compounds for the management of CFTR protein mediated diseases” (Emory University, priority 2015, dated 2023):
pKd: −log10 of the molar value. Where two headings read alike, the source gives them in different places. Blank lines part the entries; values can stand above or below the compound they belong to.

Columns and labels:
mCFTR = mCFTR (Mus musculus, UniProt P26361); settings: cited from earlier work
[1] = molecular target: T1, wildtype human CFTR (WT-hCFTR) (Homo sapiens, UniProt P13569); test: Two-electrode voltage clamp (TEVC) on Xenopus oocytes expressing WT-hCFTR; assay type: cell-based; settings: for pKd: FIG. 2A
T1 construct: expressed in transfected cells; host or cells: Xenopus laevis oocytes injected with cRNA (hCFTR/pGEMHE, gift of D. Gadsby)
From the text: (§1) In order to identify compounds that potentiate F508del-hCFTR expressed in Xenopus oocytes, the effects of IOWH-032 on WT, R352A, and F508del-hCFTR were studied using the two-electrode voltage clamp (TEVC) technique. […] See Drumm et al. Chloride conductance expressed by delta F508 and other mutant CFTRs in Xenopus oocytes. Science, 1991, 254(5039): 1797-1799. Extracellular exposure to IOWH-032 potentiated WT and F508del-hCFTR channels.
Human CFTR cRNAs used in electrophysiology experiments were prepared from constructs encoding WT-hCFTR in the pGEMHE vector (hCFTR/pGEMHE kindly provided by Dr. D. Gadsby, Rockefeller University). The mutants of hCFTR used in this study were prepared using site-directed mutagenesis with the Quikchange protocol (Stratagene, La Jolla, CA) and mutant constructs were verified by sequencing across the entire open reading frame before use. Xenopus laevis oocytes were injected with 0.4-10 ng of CFTR cRNAs, and were incubated at 17° C. in modified Liebovitz's L-15 media with the addition of HEPES (pH 7.5), penicillin, and streptomycin. Recordings were made typically 24-96 hours after the injection of cRNAs.
Standard two-electrode voltage clamp (TEVC) techniques were used to study the effects of chemicals with application of reagents to the extracellular bath. Each oocyte was injected with CFTR cRNA along with cRNA encoding the beta2-adrenergic receptor (β2AR). Electrode resistances measured 0.5-1.4 MΩ when filled with 3 M KCl and measured in standard ND96 bath solution that contained (in mM): 96 NaCl, 2 KCl, 1 MgCl2, and 5 HEPES (pH 7.5). CFTR channels were activated by exposure to 10 μM isoproterenol (ISO) in ND 96 and alternatively assayed in the presence or absence of different concentrations of compounds in the bath solution, typically in the continuing presence of ISO. Currents were acquired with an Axoclamp 900A amplifier and Clampex 10.2 software, and current data were digitized at 2 kHz.

[2] = molecular target: T2, human CFTR with a R352A mutation (Homo sapiens, UniProt P13569, R352A); test: Two-electrode voltage clamp (TEVC) on Xenopus oocytes expressing R352A-hCFTR; assay type: cell-based; settings: FIG. 2B
T2 construct: expressed in transfected cells; host or cells: Xenopus laevis oocytes injected with cRNA; mutant made by Quikchange site-directed mutagenesis of hCFTR/pGEMHE
From the text: as §1
(§2) Human CFTR cRNAs used in electrophysiology experiments were prepared from constructs encoding WT-hCFTR in the pGEMHE vector (hCFTR/pGEMHE kindly provided by Dr. D. Gadsby, Rockefeller University). The mutants of hCFTR used in this study were prepared using site-directed mutagenesis with the Quikchange protocol (Stratagene, La Jolla, CA) and mutant constructs were verified by sequencing across the entire open reading frame before use. […]
(§3) Standard two-electrode voltage clamp (TEVC) techniques were used to study the effects of chemicals with application of reagents to the extracellular bath. […] Electrode resistances measured 0.5-1.4 MΩ when filled with 3 M KCl and measured in standard ND96 bath solution that contained (in mM): 96 NaCl, 2 KCl, 1 MgCl2, and 5 HEPES (pH 7.5). […]

F508del-hCFTR = molecular target: T3, F508del-hCFTR (Homo sapiens, UniProt P13569, DEL508-508); test: Two-electrode voltage clamp (TEVC) on Xenopus oocytes expressing F508del-hCFTR; assay type: cell-based; settings: FIG. 2C
T3 construct: expressed in transfected cells; host or cells: Xenopus laevis oocytes injected with cRNA; mutant made by Quikchange site-directed mutagenesis of hCFTR/pGEMHE
From the text: as §1, §2, §3

hCFTR = hCFTR (Homo sapiens, UniProt P13569); settings: cited from earlier work
[3] = extracellular exposure, TEVC, Xenopus oocytes

T1 sequence (P13569 whole entry): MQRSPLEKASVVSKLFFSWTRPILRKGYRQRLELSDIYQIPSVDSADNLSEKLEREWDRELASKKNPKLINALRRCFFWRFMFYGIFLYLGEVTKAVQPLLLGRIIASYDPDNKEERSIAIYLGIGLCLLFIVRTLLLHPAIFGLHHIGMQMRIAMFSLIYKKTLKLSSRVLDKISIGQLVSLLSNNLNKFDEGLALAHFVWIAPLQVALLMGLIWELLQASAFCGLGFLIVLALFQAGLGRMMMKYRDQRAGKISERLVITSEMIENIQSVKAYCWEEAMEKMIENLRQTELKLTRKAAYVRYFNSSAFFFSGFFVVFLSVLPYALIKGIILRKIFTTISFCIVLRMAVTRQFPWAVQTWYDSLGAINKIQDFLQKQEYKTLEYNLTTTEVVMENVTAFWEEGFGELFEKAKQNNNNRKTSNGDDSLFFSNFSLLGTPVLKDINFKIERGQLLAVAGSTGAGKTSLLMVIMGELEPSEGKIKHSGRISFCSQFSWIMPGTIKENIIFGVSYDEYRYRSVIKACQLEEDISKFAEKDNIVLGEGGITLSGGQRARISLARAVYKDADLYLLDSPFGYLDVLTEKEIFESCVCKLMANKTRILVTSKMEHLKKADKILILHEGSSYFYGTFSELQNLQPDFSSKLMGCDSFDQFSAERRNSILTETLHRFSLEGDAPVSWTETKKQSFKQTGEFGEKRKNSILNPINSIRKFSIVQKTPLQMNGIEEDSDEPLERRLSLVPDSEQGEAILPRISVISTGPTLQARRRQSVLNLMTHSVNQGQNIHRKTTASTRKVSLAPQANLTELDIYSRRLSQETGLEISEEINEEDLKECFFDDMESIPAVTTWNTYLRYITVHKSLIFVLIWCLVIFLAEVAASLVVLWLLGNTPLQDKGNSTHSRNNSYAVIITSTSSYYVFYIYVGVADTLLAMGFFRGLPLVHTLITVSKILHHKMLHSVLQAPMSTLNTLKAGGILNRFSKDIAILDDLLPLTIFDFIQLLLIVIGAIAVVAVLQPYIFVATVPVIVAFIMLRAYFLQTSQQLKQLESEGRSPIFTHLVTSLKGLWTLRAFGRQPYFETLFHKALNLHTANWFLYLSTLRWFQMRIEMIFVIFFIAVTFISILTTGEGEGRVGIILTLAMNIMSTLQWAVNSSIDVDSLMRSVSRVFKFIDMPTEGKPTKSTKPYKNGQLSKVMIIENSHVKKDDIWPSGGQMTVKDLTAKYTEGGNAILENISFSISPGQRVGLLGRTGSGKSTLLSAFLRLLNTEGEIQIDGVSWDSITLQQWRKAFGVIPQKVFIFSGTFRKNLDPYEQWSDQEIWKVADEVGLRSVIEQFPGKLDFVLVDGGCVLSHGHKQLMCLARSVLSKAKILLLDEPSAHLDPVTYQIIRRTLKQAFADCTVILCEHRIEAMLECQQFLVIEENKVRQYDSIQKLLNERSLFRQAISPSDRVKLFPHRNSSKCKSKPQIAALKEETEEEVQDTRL
Chain of mCFTR (P26361 whole entry): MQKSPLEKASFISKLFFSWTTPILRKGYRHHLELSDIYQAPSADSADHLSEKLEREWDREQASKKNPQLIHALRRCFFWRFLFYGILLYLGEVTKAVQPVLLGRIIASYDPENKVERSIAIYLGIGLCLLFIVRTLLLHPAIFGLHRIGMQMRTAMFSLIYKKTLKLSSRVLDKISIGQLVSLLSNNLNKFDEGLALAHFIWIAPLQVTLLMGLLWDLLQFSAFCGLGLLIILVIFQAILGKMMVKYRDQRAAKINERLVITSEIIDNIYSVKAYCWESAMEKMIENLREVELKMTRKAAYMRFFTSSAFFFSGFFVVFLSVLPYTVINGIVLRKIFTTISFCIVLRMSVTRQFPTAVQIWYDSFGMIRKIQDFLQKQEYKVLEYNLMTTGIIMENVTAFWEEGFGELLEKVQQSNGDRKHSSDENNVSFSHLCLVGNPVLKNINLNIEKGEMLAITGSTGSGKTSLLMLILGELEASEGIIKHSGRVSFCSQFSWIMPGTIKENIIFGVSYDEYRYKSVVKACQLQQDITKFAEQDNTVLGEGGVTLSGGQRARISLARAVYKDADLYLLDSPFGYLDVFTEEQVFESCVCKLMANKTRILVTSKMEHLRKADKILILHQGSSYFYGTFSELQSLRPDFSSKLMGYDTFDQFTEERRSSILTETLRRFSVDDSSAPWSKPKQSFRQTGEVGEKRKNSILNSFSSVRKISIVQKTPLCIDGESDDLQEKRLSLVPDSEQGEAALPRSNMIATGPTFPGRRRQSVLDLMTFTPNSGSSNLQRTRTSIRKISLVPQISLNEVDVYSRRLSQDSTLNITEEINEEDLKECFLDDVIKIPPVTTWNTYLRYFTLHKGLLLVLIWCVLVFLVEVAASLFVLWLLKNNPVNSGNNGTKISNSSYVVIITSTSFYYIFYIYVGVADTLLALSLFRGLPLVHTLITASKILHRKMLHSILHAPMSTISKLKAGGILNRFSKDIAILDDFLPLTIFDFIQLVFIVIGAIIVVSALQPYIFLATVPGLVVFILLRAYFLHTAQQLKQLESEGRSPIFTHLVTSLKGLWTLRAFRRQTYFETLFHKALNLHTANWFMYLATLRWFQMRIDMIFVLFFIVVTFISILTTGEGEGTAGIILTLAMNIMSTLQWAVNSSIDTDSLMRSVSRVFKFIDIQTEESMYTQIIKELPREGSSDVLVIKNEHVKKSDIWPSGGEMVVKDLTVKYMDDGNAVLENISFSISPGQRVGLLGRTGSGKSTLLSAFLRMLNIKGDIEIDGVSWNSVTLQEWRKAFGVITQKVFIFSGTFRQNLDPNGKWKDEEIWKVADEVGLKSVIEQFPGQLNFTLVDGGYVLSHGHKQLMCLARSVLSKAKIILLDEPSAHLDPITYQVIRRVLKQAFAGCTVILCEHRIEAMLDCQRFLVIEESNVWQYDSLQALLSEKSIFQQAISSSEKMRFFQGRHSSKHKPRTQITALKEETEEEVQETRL
Chain of hCFTR (P13569 whole entry): as the sequence (P13569 whole entry) above
T3 sequence (P13569 with tags, fused parts or gaps DEL508-508): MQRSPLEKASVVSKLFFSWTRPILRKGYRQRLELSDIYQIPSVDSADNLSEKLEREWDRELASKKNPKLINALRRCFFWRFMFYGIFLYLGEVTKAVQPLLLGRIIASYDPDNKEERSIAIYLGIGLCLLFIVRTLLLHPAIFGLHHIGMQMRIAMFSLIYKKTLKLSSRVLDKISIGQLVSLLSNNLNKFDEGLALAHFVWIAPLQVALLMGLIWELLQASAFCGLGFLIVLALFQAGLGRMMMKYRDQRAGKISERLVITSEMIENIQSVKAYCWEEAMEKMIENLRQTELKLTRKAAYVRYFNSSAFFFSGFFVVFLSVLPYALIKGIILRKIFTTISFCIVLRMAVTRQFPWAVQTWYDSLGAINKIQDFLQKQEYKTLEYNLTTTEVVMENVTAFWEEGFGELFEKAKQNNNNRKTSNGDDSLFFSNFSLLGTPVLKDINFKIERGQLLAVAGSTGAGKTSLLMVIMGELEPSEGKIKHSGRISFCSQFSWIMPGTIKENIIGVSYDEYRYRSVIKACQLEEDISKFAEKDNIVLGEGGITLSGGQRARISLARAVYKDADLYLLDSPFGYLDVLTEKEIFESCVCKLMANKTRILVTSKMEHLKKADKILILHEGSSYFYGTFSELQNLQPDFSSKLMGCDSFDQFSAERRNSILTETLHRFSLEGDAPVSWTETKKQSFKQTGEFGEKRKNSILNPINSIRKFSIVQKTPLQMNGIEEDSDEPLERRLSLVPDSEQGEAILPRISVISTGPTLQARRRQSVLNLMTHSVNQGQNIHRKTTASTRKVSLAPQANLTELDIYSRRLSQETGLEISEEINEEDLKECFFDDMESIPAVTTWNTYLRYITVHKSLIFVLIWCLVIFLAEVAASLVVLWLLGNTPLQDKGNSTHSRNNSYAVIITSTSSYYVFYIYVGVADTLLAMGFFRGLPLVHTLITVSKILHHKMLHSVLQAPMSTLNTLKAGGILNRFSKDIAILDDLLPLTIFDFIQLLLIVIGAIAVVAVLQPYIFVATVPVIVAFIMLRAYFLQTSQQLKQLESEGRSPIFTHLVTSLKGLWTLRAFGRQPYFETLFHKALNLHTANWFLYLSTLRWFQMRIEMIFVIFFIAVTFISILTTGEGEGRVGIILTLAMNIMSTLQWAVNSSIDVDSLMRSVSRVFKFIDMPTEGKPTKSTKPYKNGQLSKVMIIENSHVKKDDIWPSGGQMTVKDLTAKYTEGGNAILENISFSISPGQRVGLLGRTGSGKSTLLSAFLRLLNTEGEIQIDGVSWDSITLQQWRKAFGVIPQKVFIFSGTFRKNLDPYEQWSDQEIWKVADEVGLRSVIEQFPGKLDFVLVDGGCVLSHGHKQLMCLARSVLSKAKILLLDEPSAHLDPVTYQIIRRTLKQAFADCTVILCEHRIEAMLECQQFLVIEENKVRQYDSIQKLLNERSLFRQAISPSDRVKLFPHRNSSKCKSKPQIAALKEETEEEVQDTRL
T2 sequence (P13569 whole entry R352A): as the sequence (P13569 whole entry) above, with R352A counted along it

Structure (SMILES): O=C(CNc1ccc2ccccc2c1)N/N=C/c1cc(Br)c(O)c(Br)c1O [GlyH-101]
- Potentiation of mCFTR (mCFTR): potentiate

- pKd ([1]; inhibition component, read-out: Kd of inhibition of WT-hCFTR): 8.21
- pKd ([1]; potentiation component, read-out: Kd of potentiation of WT-hCFTR): 9.19
- Potentiation of WT-hCFTR channels [1, 3]: potentiated
- Inhibition of R352A human CFTR [2]: did not inhibit
- Potentiation of R352A human CFTR [2]: potentiated
- Inhibition of F508del human CFTR (F508del-hCFTR): did not inhibit
- Potentiation of F508del human CFTR (F508del-hCFTR; [3]): potentiated
Structure (SMILES): O=C(NCc1ccc(Oc2ccccc2)cc1)c1nc(-c2cc(Br)c(O)c(Br)c2)no1 [iOWH-032, 3-(3,5-dibromo-4-hydroxyphenyl)-N-(4-phenoxybenzyl)-1,2,4-oxadiazole-5-carboxamide]

Structure (SMILES): O=C(O)c1cc([N+](=O)[O-])ccc1NCCCc1ccccc1 [NPPB]
- Potentiation of hCFTR (hCFTR; channel incompletely phosphorylated, activated by a low concentration of PKA): potentiate
- Potentiation of hCFTR (hCFTR; extremely high concentrations of NPPB): potentiate

Structure (SMILES): COc1ccc(Cl)cc1C(=O)NCCc1ccc(S(=O)(=O)NC(=O)NC2CCCCC2)cc1 [glibenclamide]
- Potentiation of mCFTR (mCFTR): potentiate
